Experimental data published in PubChem BioAssay AID2060497 (Molecular Pharmacology Branch, DTP, NCI, 2025).

System: 317291-083-R-J1-PDC complex spheroids, viability
Test: Anticancer human tumor 317291-083-R-J1-PDC patient-derived soft tissue sarcoma cell line growth inhibition [GQUAD]
Conditions: for IC50: curve of first compound; for viability, T/C: stronger effect = lower value
In short: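 Viability of tumor cells grown as complex spheroids with endothelial and stromal cells, exposed to drug combinations. Top concentration at or near clinical Cmax (else 10 microM), diluted in half-log increments.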

[1] = second compound 0.0316 µM, first compound 0.0316 µM
[2] = second compound 0.0316 µM, first compound 0.1 µM
[3] = second compound 0.0316 µM, first compound 0.316 µM
[4] = second compound 0.0316 µM, first compound 1 µM
[5] = second compound 0.0316 µM, first compound 3.16 µM
[6] = second compound 0.0316 µM, first compound 10 µM
[7] = second compound 0.1 µM, first compound 0.0316 µM
[8] = second compound 0.1 µM, first compound 0.1 µM
[9] = second compound 0.1 µM, first compound 0.316 µM
[10] = second compound 0.1 µM, first compound 1 µM
[11] = second compound 0.1 µM, first compound 3.16 µM
[12] = second compound 0.1 µM, first compound 10 µM
[13] = second compound 0.316 µM, first compound 0.0316 µM
[14] = second compound 0.316 µM, first compound 0.1 µM
[15] = second compound 0.316 µM, first compound 0.316 µM
[16] = second compound 0.316 µM, first compound 1 µM
[17] = second compound 0.316 µM, first compound 3.16 µM
[18] = second compound 0.316 µM, first compound 10 µM
[19] = second compound 1 µM, first compound 0.0316 µM
[20] = second compound 1 µM, first compound 0.1 µM
[21] = second compound 1 µM, first compound 0.316 µM
[22] = second compound 1 µM, first compound 1 µM
[23] = second compound 1 µM, first compound 3.16 µM
[24] = second compound 1 µM, first compound 10 µM
[25] = second compound 3.16 µM, first compound 0.0316 µM
[26] = second compound 3.16 µM, first compound 0.1 µM
[27] = second compound 3.16 µM, first compound 0.316 µM
[28] = second compound 3.16 µM, first compound 1 µM
[29] = second compound 3.16 µM, first compound 3.16 µM
[30] = second compound 3.16 µM, first compound 10 µM
[31] = second compound 10 µM, first compound 0.0316 µM
[32] = second compound 10 µM, first compound 0.1 µM
[33] = second compound 10 µM, first compound 0.316 µM
[34] = second compound 10 µM, first compound 1 µM
[35] = second compound 10 µM, first compound 3.16 µM
[36] = second compound 10 µM, first compound 10 µM
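Further: spheroids exposed to compounds for one week before readout.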
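Wherever viability, T/C is given: percent viability relative to DMSO vehicle wells taken as 100%.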

`COc1ccc([C@@H](O)c2cc(-c3ncnc4cc(N5CCOCC5)ccc34)c(F)cc2Cl)nn1` + Cc1[nH]c2ccc(F)cc2c1-c1nc2c3cccnc3c3ncccc3c2[nH]1 was tested. Which IC50 (second compound 0.0316 µM) did it give?
Its IC50 is 8490 nM.

What about the IC50 (second compound 0.1 µM) of the same compound?
The IC50 was 7300 nM.

And the IC50 (second compound 0.316 µM)?
The IC50 was over 10000 nM.

And the IC50 (second compound 1 µM)?
The IC50 was 5890 nM.

What about the IC50 (second compound 3.16 µM) of the same compound?
Its IC50 is 3910 nM.

What about the IC50 (second compound 10 µM) of the same compound?
The IC50 was 2250 nM.

What about the viability, T/C [1] of the same compound?
Its viability, T/C is 103%.

What about the viability, T/C [2] of the same compound?
The viability, T/C was 91.6%.

And the viability, T/C [3]?
Its viability, T/C is 105%.

And the viability, T/C [4]?
The viability, T/C was 79.6%.

And the viability, T/C [5]?
The viability, T/C was 72.2%.

What about the viability, T/C [6] of the same compound?
The viability, T/C was 46.3%.

What about the viability, T/C [7] of the same compound?
Its viability, T/C is 102%.

What about the viability, T/C [8] of the same compound?
The viability, T/C was 101%.

And the viability, T/C [9]?
The viability, T/C was 86.8%.

What about the viability, T/C [10] of the same compound?
The viability, T/C was 73.7%.

And the viability, T/C [11]?
The viability, T/C was 69.9%.

What about the viability, T/C [12] of the same compound?
Its viability, T/C is 42.6%.

What about the viability, T/C [13] of the same compound?
The viability, T/C was 99.5%.

And the viability, T/C [14]?
Its viability, T/C is 95.4%.

What about the viability, T/C [15] of the same compound?
Its viability, T/C is 96.6%.

What about the viability, T/C [16] of the same compound?
Its viability, T/C is 92.5%.

What about the viability, T/C [17] of the same compound?
The viability, T/C was 86.2%.

And the viability, T/C [18]?
Its viability, T/C is 53%.

What about the viability, T/C [19] of the same compound?
The viability, T/C was 90.6%.

And the viability, T/C [20]?
Its viability, T/C is 110%.

And the viability, T/C [21]?
The viability, T/C was 88.6%.

What about the viability, T/C [22] of the same compound?
The viability, T/C was 78.5%.

What about the viability, T/C [23] of the same compound?
Its viability, T/C is 64.3%.

And the viability, T/C [24]?
The viability, T/C was 39.1%.

What about the viability, T/C [25] of the same compound?
The viability, T/C was 72.4%.

What about the viability, T/C [26] of the same compound?
Its viability, T/C is 81.8%.

What about the viability, T/C [27] of the same compound?
Its viability, T/C is 76.4%.

And the viability, T/C [28]?
The viability, T/C was 91.7%.

And the viability, T/C [29]?
The viability, T/C was 55.6%.

What about the viability, T/C [30] of the same compound?
The viability, T/C was 25.2%.

And the viability, T/C [31]?
Its viability, T/C is 68%.

What about the viability, T/C [32] of the same compound?
Its viability, T/C is 66.5%.

What about the viability, T/C [33] of the same compound?
Its viability, T/C is 79%.

What about the viability, T/C [34] of the same compound?
Its viability, T/C is 54.8%.

What about the viability, T/C [35] of the same compound?
Its viability, T/C is 47%.

And the viability, T/C [36]?
The viability, T/C was 16%.

`CC1COCCN1c1cc(C2(O)CC3CCC(C2)O3)c2cnn(-c3ccn[nH]3)c2n1` (centres undefined) + Cc1[nH]c2ccc(F)cc2c1-c1nc2c3cccnc3c3ncccc3c2[nH]1 was tested. Which IC50 (second compound 0.0316 µM) did it give?
Its IC50 is 71.4 nM.

What about the IC50 (second compound 0.1 µM) of the same compound?
Its IC50 is 54.7 nM.

And the IC50 (second compound 0.316 µM)?
The IC50 was 39.2 nM.

What about the IC50 (second compound 1 µM) of the same compound?
Its IC50 is 51.7 nM.

And the IC50 (second compound 3.16 µM)?
Its IC50 is 50.2 nM.

What about the IC50 (second compound 10 µM) of the same compound?
The IC50 was 33.7 nM.

What about the viability, T/C [1] of the same compound?
The viability, T/C was 84.1%.

And the viability, T/C [2]?
Its viability, T/C is 34.8%.

And the viability, T/C [3]?
Its viability, T/C is 16%.

What about the viability, T/C [4] of the same compound?
The viability, T/C was 22.8%.

What about the viability, T/C [5] of the same compound?
The viability, T/C was 13.2%.

And the viability, T/C [6]?
Its viability, T/C is 3.15%.

And the viability, T/C [7]?
The viability, T/C was 68.5%.

And the viability, T/C [8]?
The viability, T/C was 29.5%.

What about the viability, T/C [9] of the same compound?
The viability, T/C was 13.9%.

What about the viability, T/C [10] of the same compound?
Its viability, T/C is 12.8%.

What about the viability, T/C [11] of the same compound?
Its viability, T/C is 10.4%.

And the viability, T/C [12]?
The viability, T/C was 3.93%.

And the viability, T/C [13]?
The viability, T/C was 55.7%.

And the viability, T/C [14]?
The viability, T/C was 27.9%.

What about the viability, T/C [15] of the same compound?
The viability, T/C was 14.8%.

What about the viability, T/C [16] of the same compound?
The viability, T/C was 20.1%.

And the viability, T/C [17]?
Its viability, T/C is 12.1%.

What about the viability, T/C [18] of the same compound?
The viability, T/C was 3.04%.

What about the viability, T/C [19] of the same compound?
The viability, T/C was 66.4%.

And the viability, T/C [20]?
Its viability, T/C is 26.4%.

And the viability, T/C [21]?
The viability, T/C was 18.6%.

What about the viability, T/C [22] of the same compound?
Its viability, T/C is 10.8%.

And the viability, T/C [23]?
Its viability, T/C is 11.3%.

And the viability, T/C [24]?
The viability, T/C was 2.71%.

What about the viability, T/C [25] of the same compound?
The viability, T/C was 69.7%.

And the viability, T/C [26]?
The viability, T/C was 20.4%.

What about the viability, T/C [27] of the same compound?
The viability, T/C was 10.7%.

And the viability, T/C [28]?
Its viability, T/C is 14.3%.

And the viability, T/C [29]?
The viability, T/C was 7.98%.

What about the viability, T/C [30] of the same compound?
Its viability, T/C is 2.88%.

And the viability, T/C [31]?
The viability, T/C was 52.3%.

And the viability, T/C [32]?
Its viability, T/C is 18.9%.

What about the viability, T/C [33] of the same compound?
The viability, T/C was 14%.

And the viability, T/C [34]?
Its viability, T/C is 13.8%.

And the viability, T/C [35]?
The viability, T/C was 10.7%.

And the viability, T/C [36]?
The viability, T/C was 3.52%.
